Laboratory results published in patent US10913732B2, “Furoxans as therapies for neurodegenerative disorders” (The University of Toledo, priority 2016, dated 2021).
“Also recorded” adds a separate entry of the source.

Experiments:
[1] = Thiol reactivity by incubation with excess thiol, HPLC-UVvis; assay type: physicochemical
Procedure: FIGS. 5A-5B: Thiol reactivity was analyzed via incubations containing 31b (250 μM) in the presence or absence of excess (5 mM) cysteine (or N-acetylcysteine [NAc]) in PBS (50 mM, pH
(§1) 7.4) at 37° C. (FIG. 5A). Incubations were placed in a temperature controlled HPLC autosampler and aliquots are analyzed by HPLC-UVvis periodically for 2-24 hr. Percent furoxan remaining was determined based on the area under the curve (AUC) of the HPLC UV-absorbance spectrum. Similarly, rat liver microsomes were incubated with 31b in the presence or absence of NADPH to determine microsomal stability (FIG. 5B). Warfarin and verapamil were used as slow and fast metabolizing controls.
Without wishing to be bound by theory, it is believed that furoxans require thiol attack to produce NO. […] Thiol reactivity of 31b was assessed via incubations with excess thiol (N-acetylcysteine [NAc]) at physiological pH and temperature using a temperature controlled HPLC autosampler. […]
(§2) HPLC method: solvents, H2O [0.1% FA]—solvent A; MeOH [0.1% FA]—solvent B; flow rate 1.0 mL/min. […] As described above, thiol reactivity was analyzed via incubations containing the furoxan (250 μM) in the presence or absence of excess (5 mM) cysteine (or N-acetylcysteine [NAc]) in PBS (50 mM, pH 7.4) at 37° C. Incubations were placed in a temperature controlled HPLC autosampler and aliquots were analyzed by HPLC-UVvis periodically for 2-24 hr. […]

Male C57BL/6 mice = experiment: Step-through passive avoidance (STPA), scopolamine-induced amnesia; assay type: in vivo
Procedure: FIGS. 4A-4B: STPA experimental timeline (FIG. 4A), and results of Male C57BL/6 mice administered either vehicle or 31b via i.p. injection at 60 min or 120 min prior to training in STPA (FIG. 4B). […] Memory retention was measured as latency to enter the dark compartment 24 h after training. Data represented as mean and s.e.m.
The STPA apparatus consisted of an acrylic box with an illuminated compartment connected to a darkened compartment by a small guillotine door. Mice were placed in the illuminated side and were trained against their natural tendency to translocate to the dark side using an aversive stimulus (shock via electrified floor grading). Memory consolidation is measured as the latency times to enter the dark compartment 24 hr after training.
All procedures were performed under the approved IACUC protocol #108451. Male C57BL/6 mice (Envigo), N=9 per group, were habituated at the animal facility for at least 14 days. Ear tags were applied and animals weighed. 2 hr prior to the drug adminstration the mice were individually acclimated to the illuminated compartment to assess tendency to enter the dark chamber (measured in seconds). In this phase no shock was be delivered. […] The mice were then administered either vehicle (95 [0.9% NaCl]:5 [DMSO]) or 31b (0.1, 1, 10, or 20 mg/kg) via i.p. injection (50 μL) at 1 h or 2 h prior to training. […] Mice were individually placed into the light compartment and upon translocation to the dark compartment the guiltine door closed and the mice were trained by delivering a mild adversive stimulus (0.5 mA) via the electrified floor grading of the dark chamber. Each mouse was held in the dark chamber for 30 seconds, then returned to their cage for 120 seconds before the second training session. […] Memory retention was measured 24 hours after training by placing the same mouse in the light chamber and measuring latency to enter the dark chamber (no aversive stimulus is delivered during the retention test). Data was analyzed by one way ANOVA analysis with Dunnett's post-hoc test.

pCREB = pCREB modulation in PC-12 cells (without insult, with OGD, L-NAME); assay type: cell-based; conditions: 31b 25 μM, 48 hr incubation
Procedure: (§3) FIGS. 3A-3C: Neuroprotection (FIG. 3A), MTT treatment was used to assess cell viability (FIG. 3B), and pCREB modulation (FIG. 3C) of furoxan compounds. Neuroprotection assay workflow: expose PC12 cells to oxygen glucose deprivation (OGD) for 90 min→reoxygenate and add furoxan (1, 10, or 25 μM)→incubate for 24 hr→MTT readout of viability. Data represented as mean and s.e.m. (n=3). *=p<0.05, **=p<0.01, ***=p<0.001 compared to vehicle control using one way ANOVA analysis with Dunnett's post-hoc test. Red dashed line indicates threshold of vehicle effects. For pCREB modulation, 31b (25 μM) was examined (PC-12 cells, 48 hr incubation) in the following: without insult, with OGD, L-NAME.

[2] = Rat liver microsome metabolic stability; assay type: in vitro ADME; conditions: rat liver microsomes, read-out: RLM t1/2
Procedure: as §1
Metabolic stability is an important parameter for determining the drug-like properties of a molecule, especially when trying to develop attenuated furoxans which require reaction with thiols to produce an effect. The metabolism of 31b in the presence of rat liver microsomes (RLM) was studied. Verapamil and warfarin were used as well-characterized controls. […]
as §2, with “hr. Percent furoxan remaining was determined based on the area under the curve (AUC) of the HPLC UV-absorbance spectrum.” for “hr.”

PC12 cells = experiment: In vitro neuroprotection against oxygen glucose deprivation (OGD), MTT viability readout; assay type: cell-based; conditions: OGD 90 min, reoxygenation, furoxan 1, 10 or 25 μM, 24 hr
Procedure: as §3
It has been shown that furoxans are protective against oxygen glucose deprivation (OGD), a commonly used cellular model of ischemic stroke. PC12 cells were submitted to OGD for 90 minutes followed by reoxygenation and treatment with varying concentrations of selected embodiments of compounds of Formula I (indicated in FIG. 3A). After 24 hr, MTT treatment was used to assess cell viability (FIG. 3B). […] It has been shown previously that 4-N-oxides release NO at a much slower rate than corresponding 2-N-oxides.

CC1CCN(Cc2no[n+]([O-])c2-c2ccc(F)cc2)CC1 [31b]
Stability in the presence of general cellular thiols, such as GSH and cysteine [1]: extremely stable
Change in amount of furoxan with excess thiol ([1]; 250 μM, 5 mM N-acetylcysteine, PBS pH 7.4, 37° C., after 24 hr): no measurable change
Latency to enter the dark compartment (Male C57BL/6 mice; 20 mg/kg i.p. 2 hr prior to training, scopolamine 1 mg/kg i.p. 30 min prior to training, 24 hr after training): 237 s
Reversal of scopolamine induced amnesia / memory impairment in STPA (Male C57BL/6 mice; mice, i.p., scopolamine 1 mg/kg): reverses scopolamine induced memory impairment; also recorded: capable of reversing scopolamine induced amnesia
Effects of NOS inhibition on pCREB (pCREB): reverses the effects of NOS inhibition on pCREB
half-life [2]: ~11 min
Neuroprotection against OGD (cell viability by MTT) (PC12 cells): concentration dependent protection; also recorded: outperform the corresponding 2-N-oxides
